Data published in patent publication US8802895B2, “Amide derivatives of benzene-sulfonanilide, pharmaceutical composition thereof and method for cancer treatment using the same” (Cleveland State University, priority 2010, dated 2014).
Read-outs that look alike come from different tables or passages of the source.

Legend:
cells = test: Primary mechanism study: cell viability with compound #10 and 2-APB (FIG. 10); assay type: cell-based; conditions: 2-APB added two hours before compound #10; cell viability after 48 hours
SKBR-3 cells = test: MTT cell viability assay with SKBR-3 cells; assay type: cell-based; conditions: Homo sapiens, SK-BR-3
Description: SKBR-3 cells were obtained from ATCC (Rockville, Md.). […] Bovine serum was heat inactivated for 30 min in a 56° C. water bath before use. Cell cultures were grown at 37° C., in a humidified atmosphere of 5% CO2 in a Hereaus CO2 incubator. For all experiments, cells were seeded in 96 well plates with 5000 cells/well density.
Cells were grown in custom medium in 96-well, flat-bottomed plates for 24 h, and were exposed to various concentrations of nimesulide derivatives dissolved in DMSO (final concentration≦0.1%) in media for different time intervals. Controls received DMSO vehicle at a concentration equal to that in drug-treated cells. […] Supernatants were removed from the wells, and the reduced 3-(4,5-dimethylthiazol-2-yl)-2,5-diphenyl-2H-tetrazolium bromide dye was solubilized in 200 μl/well DMSO. Absorbance at 570 nm was determined on a plate reader.

[1] = SKBR-3 cells, cell viability, read-out: IC50

IC50 (SKBR-3 cells; [1]) [nM] | SMILES | other results
– | NCCOB(c1ccccc1)c1ccccc1 [Compound 2-APB, 2-aminoethoxydiphenyl borate, reference compound] | rescue of cell death from compound #10 treatment (cell viability) (cells): can partially rescue the cell death from compound #10 treatment
16.6 ± 7.7 | COc1ccc(OC)c(COc2cc(NC(=O)c3ccc4ccccc4c3)ccc2N(C)S(C)(=O)=O)c1 [Compound #45, N-[3-(2,5-dimethoxyl-benzyloxy)-4-(methanesulfonyl-methyl-amino)-phenyl]-2-naphthalenecarboxamide] | –
2.6 ± 1.3 | COc1ccc(OC)c(COc2cc(NC(=O)c3ccc(OC)c(OC)c3)ccc2N(C)S(C)(=O)=O)c1 [Compound #44, N-[3-(2,5-dimethoxyl-benzyloxy)-4-(methanesulfonyl-methyl-amino)-phenyl]-3,4-dimethoxy-benzamide] | –
– | COc1ccc(OC)c(COc2cc(NC(=O)c3ccc(Br)cc3)ccc2N(C)S(C)(=O)=O)c1 [Compound #42, N-[3-(2,5-dimethoxy-benzyloxy)-4-(methanesulfonyl-methyl-amino)-phenyl]-4-bromobenzamide] | IC50 (SKBR-3 cells): 3.5 ± 1.9 nM
1.8 ± 0.7 | COc1ccc(OC)c(COc2cc(NC(=O)c3ccc(I)cc3)ccc2N(C)S(C)(=O)=O)c1 [Compound #40, N-[3-(2,5-dimethoxyl-benzyloxy)-4-(methanesulfonyl-methyl-amino)-phenyl]-4-iodo-benzamide] | –
– | COc1ccc(OC)c(COc2cc(NC(=O)c3ccc4c(c3)OCO4)ccc2N(C)S(C)(=O)=O)c1 [Compound #43, N-[3-(2,5-dimethoxyl-benzyloxy)-4-(methanesulfonyl-methyl-amino)-phenyl]-1,3-benzodioxole-5-carboxamide] | IC50 (SKBR-3 cells): 7.5 ± 2.8 nM
0.87 ± 0.33 | COc1ccc(C(=O)Nc2ccc(N(C)S(C)(=O)=O)c(OCc3cc(OC)ccc3OC)c2)cc1 [Compound #41, N-[3-(2,5-dimethoxy-benzyloxy)-4-(methanesulfonyl-methyl-amino)-phenyl]-4-methoxy-benzamide] | –
